Where two headings read alike, the source gives them in different places.
Assays:
[1] = tested on: human intestinal Caco-2 cell membranes; details: ref Yi et al., 2006; cited from earlier work
[2] = for ACNs in I.E. as % of input: fed state (high fat meal), ileal efflux over 4 h, mean ± range, two experiments
[3] = for hourly bioaccessibility as a percentage of anthocyanin input: fasted state, 4 h
[4] = tested on: mice with diet-induced diabetes; details: orally administered, ref Grace et al., 2009; cited from earlier work

| SMILES | transport efficiency in Caco-2 cells [1] | ACNs in I.E. as % of input [2] | other results |
| --- | --- | --- | --- |
| OC[C@H]1O[C@@H](Oc2cc3c(O)cc(O)cc3[o+]c2-c2cc(O)c(O)c(O)c2)[C@H](O)[C@@H](O)[C@@H]1O [dp-3-Glucoside, delphinidin-3-glucoside] | lower transport efficiency | – | – |
| COc1cc(-c2[o+]c3cc(O)cc(O)c3cc2O[C@@H]2O[C@H](COC(C)=O)[C@H](O)[C@H](O)[C@H]2O)cc(OC)c1O [mal-3-(6″-Acetoyl)-galactoside] | – | 2.4 ± 0.9 % of input | – |
| COc1cc(-c2[o+]c3cc(O)cc(O)c3cc2O[C@@H]2OC[C@H](O)[C@H](O)[C@H]2O)cc(OC)c1O [mal-3-Arabinoside, malvidin-3-arabinoside] | – | 2.6 ± 0.4 % of input | total bioaccessibility in the fasted state relative to the fed state ([3]; fasted vs fed (high fat meal), Tables 1 and 2): twice as bioaccessible |
| COc1cc(-c2[o+]c3cc(O)cc(O)c3cc2O[C@@H]2O[C@H](CO)[C@H](O)[C@H](O)[C@H]2O)cc(OC)c1O [mal-3-Galactoside] | – | 2.6 ± 0.8 % of input | – |
| COc1cc(-c2[o+]c3cc(O)cc(O)c3cc2O[C@@H]2O[C@H](CO)[C@@H](O)[C@H](O)[C@H]2O)cc(OC)c1O [mal-3-Glucoside, malvidin-3-glucoside] | highest transport efficiency | 3.2 ± 0.1 % of input | hypoglycemic effect [4]: hypoglycemic; hourly bioaccessibility as a percentage of anthocyanin input ([3]; ileal samples): 0.3%; hourly bioaccessibility as a percentage of anthocyanin input ([3]; jejunum): 0.8% |
| COc1cc(-c2[o+]c3cc(O)cc(O)c3cc2O[C@@H]2OC[C@H](O)[C@H](O)[C@H]2O)cc(O)c1O.[Cl-] [pt-3-Arabinoside, petunidin-3-arabinoside] | – | 4.5 ± 1.5 % of input | total bioaccessibility in the fed state relative to the fasted state ([2]; fed (high fat meal) vs fasted, Tables 1 and 2): twice as bioaccessible |

From article PMC4072317 (Food chemistry, 2013)
